From PMC9781652, “Dinuclear Iron Complexes of Iminopyridine-Based Ligands as Selective Cytotoxins for Tumor Cells and Inhibitors of Cancer Cell Migration” (Pharmaceutics, 2022)

What was measured:
[1] = test system: supercoiled pUC18 DNA; test: DNA interaction analysis by agarose gel electrophoresis; type: biochemical; settings: 24 h, 37 °C
Procedure: The interaction of DNA with the compounds was monitored in an agarose gel electrophoresis as previously described. […] Two other samples were included in the assays: a sample of pUC18 DNA alone as negative control and a sample of pUC18 DNA with 5 µg/mL cisplatin for comparison purposes. […] Gels were stained with ethidium bromide (1 µg/mL in TBE) for 15 min and DNA bands were visualized under UV light.

[2] = test system: NCI-H460 human lung carcinoma cells; test: Cell proliferation assay (MTT), NCI-H460; type: cell-based; settings: for IC50: 72 h exposure, MTT, mean ± SE; for SI NCI-H460 (selectivity index): ratio IC50 CCD-18Co / IC50 NCI-H460
Procedure: (§1) Cells were seeded into 96-well plates at densities of 1500 cells per well for OVCAR-8, 1900 for NCI-H460, and 4000 for CCD-18Co. After 24 h of incubation, they were treated for 72 h with different concentrations of the compounds (concentration range: 0.01 to 6 μM for OVCAR-8; 0.05 to 2 μM for NCI-H460; and 0.07 to 70 μM for CCD-18Co cells). When indicated, cells were also incubated with 30 µM of the ROS scavenger Manganese (III) 5,10,15,20-tetrakis (4-benzoic acid) porphyrin (MnTBAP) (Calbiochem, San Diego, CA, USA). Cell viability was measured using the MTT assay as previously described. The IC50 value corresponds to the concentration of the assayed compound that is required to inhibit the cell proliferation by 50%, and was calculated by linear interpolation from the obtained growth curves. All data are reported as the mean ± standard error (SE) calculated from at least three independent experiments with three replicates in each.

[3] = test system: OVCAR-8 human ovarian carcinoma cells; test: Cell proliferation assay (MTT), OVCAR-8; type: cell-based; settings: for IC50: 72 h exposure, MTT, mean ± SE; for SI OVCAR-8 (selectivity index): ratio IC50 CCD-18Co / IC50 OVCAR-8
Procedure: as §1

[4] = test system: CCD-18Co human colon fibroblasts; test: Cell proliferation assay (MTT), non-tumor CCD-18Co; type: cell-based; settings: non-tumor cells, 72 h exposure, mean ± SE
Procedure: as §1

Row | SMILES | Interaction with pUC18 DNA in the absence of H2O2 ([1]; 25-100 µM compounds (cisplatin 5 µg/mL), no H2O2) | IC50 [2] [µM] | IC50 [3] [µM] | SI OVCAR-8 (selectivity index) [3] | IC50 [4] [µM] | Effect on pUC18 DNA in the presence of H2O2 at the highest concentrations ([1]; highest concentrations, with H2O2) | SI NCI-H460 (selectivity index) [2]
1 | N.N.[Cl][Pt][Cl] [Cisplatin, cisplatin, reference compound] | migration of the CCC form decreases until it co-migrates with the OC form | 1.01 ± 0.14 | 6.91 ± 1.21 | 4.5 | 31.2 ± 5.76 |  | 
2 | CC#N.CC#N.CC#N.CC#N.Cc1cc(N=Cc2cccc(Br)n2)c2c(c1)C1CC(O2)Oc2c(N=Cc3cccc(Br)n3)cc(C)cc21.Cc1cc(N=Cc2cccc(Br)n2)c2c(c1)C1CC(O2)Oc2c(N=Cc3cccc(Br)n3)cc(C)cc21.F[B-](F)(F)F.F[B-](F)(F)F.F[B-](F)(F)F.F[B-](F)(F)F.[Fe+2].[Fe+2] [Compound 8, [Fe22_2(CH3CN)4](BF4)4] |  | 0.48 ± 0.13 | 1.27 ± 0.39 | 5.5 | 7 ± 3.43 | total DNA degradation | 14.6
3 | N.N.O=C([O-])C1(C(=O)[O-])CCC1.[Pt+2] [Carboplatin, carboplatin, reference compound] |  | 12.8 ± 2.23 | 110 ± 4.2 | 2.1 | 240 ± 25.2 |  | 18.8
4 | CC#N.CC#N.CC#N.CC#N.Cc1cc(N=Cc2ccccn2)c2c(c1)C1CC(O2)Oc2c(N=Cc3ccccn3)cc(C)cc21.Cc1cc(N=Cc2ccccn2)c2c(c1)C1CC(O2)Oc2c(N=Cc3ccccn3)cc(C)cc21.F[B-](F)(F)F.F[B-](F)(F)F.F[B-](F)(F)F.F[B-](F)(F)F.[Fe+2].[Fe+2] [Compound 7, [Fe21_2(CH3CN)4](BF4)4] |  | 0.43 ± 0.03 | 1.39 ± 0.14 | 5.6 | 7.78 ± 5.67 |  | 18.1
